Experimental data: patent publication US7557129B2, “Cyanopyridine derivatives useful in the treatment of cancer and other disorders” (Bayer Healthcare LLC, priority 2003, dated 2009)

| melting point [°C] | SMILES |
| --- | --- |
| 199 to 200 | N#Cc1cc(Oc2ccc(NC(=O)Nc3ccc4c(c3)OC(F)(F)O4)cc2)ccn1 [Entry 109, N-(2,2-difluorobenzo[d]1,3-dioxolan-5-yl){[4-(2-cyano(4-pyridyloxy))phenyl]amino}carboxamide] |
| 193.5 to 194.5 | N#Cc1cc(Oc2ccc(NC(=O)Nc3ccc4c(c3)OC(F)(F)O4)cc2F)ccn1 [Entry 113, N-(2,2-difluorobenzo[d]1,3-dioxolan-5-yl){[4-(2-cyano(4-pyridyloxy))-3-fluorophenyl]amino}carboxamide] |
| 169 to 171 | N#Cc1cc(Oc2ccc(NC(=O)Nc3ccc4c(c3)C(F)(F)OC(F)(F)O4)c(F)c2)ccn1 [Entry 124, {[4-(2-cyano(4-pyridyloxy))-2-fluorophenyl]amino}-N-(2,2,4,4-tetrafluorobenzo[3,4-e]1,3-dioxan-6-yl)carboxamide] |
| 196 to 199.5 | N#Cc1cc(Oc2ccc(NC(=O)Nc3ccc4c(c3)C(F)(F)OC(F)(F)O4)cc2F)ccn1 [Entry 127, {[4-(2-cyano(4-pyridyloxy))-3-fluorophenyl]amino}-N-(2,2,4,4-tetrafluorobenzo[3,4-e]1,3-dioxan-6-yl)carboxamide] |
| 202 | N#Cc1cc(Oc2ccc(NC(=O)Nc3cc(C(F)(F)F)ccn3)cc2)ccn1 [Entry 152, {[4-(2-cyano(4-pyridyloxy))phenyl]amino}-N-[4-(trifluoromethyl)(2-pyridyl)]carboxamide] |
| 245.5 | Cc1ccc2cc(NC(=O)Nc3ccc(Oc4ccnc(C#N)c4)cc3)ccc2n1 [Entry 154, {[4-(2-cyano(4-pyridyloxy))phenyl]amino}-N-(2-methyl(6-quinolyl))carboxamide] |

The remaining lines, values behind:

| SMILES | melting point [°C] |
| --- | --- |
| N#Cc1cc(Oc2ccc(NC(=O)Nc3ccc4c(c3)C(F)(F)OC(F)(F)O4)c(C(F)(F)F)c2)ccn1 [Entry 128, {[4-(2-cyano(4-pyridyloxy))-2-(trifluoromethyl)phenyl]amino}-N-(2,2,4,4-tetrafluorobenzo[3,4-e]1,3-dioxan-6-yl)carboxamide] | 220 to 221 |
| N#Cc1cc(Oc2ccc(NC(=O)Nc3ccc4c(c3)C(F)(F)OC(F)(F)O4)c(F)c2F)ccn1 [Entry 129, {[4-(2-cyano(4-pyridyloxy))-2,3-difluorophenyl]amino}-N-(2,2,4,4-tetrafluorobenzo[3,4-e]1,3-dioxan-6-yl)carboxamide] | 181 to 182 |
| CSc1cc(Oc2ccnc(C#N)c2)ccc1NC(=O)Nc1ccc2c(c1)C(F)(F)OC(F)(F)O2 [Entry 140, {[4-(2-cyano(4-pyridyl)oxy)-2-methylthiophenyl]amino}-N-(2,2,4,4-tetrafluorobenzo[3,4-e]1,3-dioxan-6-yl)carboxamide] | 183 to 185 |
| CS(=O)(=O)c1cc(Oc2ccnc(C#N)c2)ccc1NC(=O)Nc1ccc2c(c1)C(F)(F)OC(F)(F)O2 [Entry 141, {[4-(2-cyano(4-pyridyl)oxy)-2-(methylsulfonyl)phenyl]amino}-N-(2,2,4,4-tetrafluorobenzo[3,4-e]1,3-dioxan-6-yl)carboxamide] | 229 to 230 |
| N#Cc1cc(Oc2ccc(NC(=O)Nc3ccnc(C(F)(F)F)c3)c(F)c2)ccn1 [Entry 142, {[4-(2-cyano(4-pyridyloxy))-2-fluorophenyl]amino}-N-[2-(trifluoromethyl)(4-pyridyl)]carboxamide] | 192 to 193 |
| CC(C)(C)c1ccnc(NC(=O)Nc2ccc(Oc3ccnc(C#N)c3)cc2)c1 [Entry 143, N-[4-(tert-butyl)(2-pyridyl)]{[4-(2-cyano(4-pyridyloxy))phenyl]amino}carboxamide] | 216 to 217 |
| N#Cc1cc(Oc2ccc(NC(=O)Nc3cc(C(F)(F)F)ccn3)c(C(F)(F)F)c2)ccn1 [Entry 150, {[4-(2-cyano(4-pyridyloxy))-2-(trifluoromethyl)phenyl]amino}-N-[4-(trifluoromethyl)(2-pyridyl)]carboxamide] | 209 to 210.5 |
| CCc1ccnc(NC(=O)Nc2ccc(Oc3ccnc(C#N)c3)cc2)c1 [Entry 153, {[4-(2-cyano(4-pyridyloxy))phenyl]amino}-N-(4-ethyl(2-pyridyl))carboxamide] | 209 to 210 |
| N#Cc1cc(Oc2ccc(NC(=O)Nc3cc4ccccc4cn3)cc2)ccn1 [Entry 159, {[4-(2-cyano(4-pyridyloxy))phenyl]amino}-N-(3-isoquinolyl)carboxamide] | 208 to 212 |
| N#Cc1cc(Oc2ccc(NC(=O)Nc3cc4ccccc4cn3)c(F)c2)ccn1 [Entry 160, {[4-(2-cyano(4-pyridyloxy))-2-fluorophenyl]amino}-N-(3-isoquinolyl)carboxamide] | 218 to 220 |
| Cn1ncc2cc(NC(=O)Nc3ccc(Oc4ccnc(C#N)c4)cc3C(F)(F)F)ccc21 [Entry 165, {[4-(2-cyano(4-pyridyloxy))-2-(trifluoromethyl)phenyl]amino}-N-(1-methyl(1H-indazol-5-yl))carboxamide] | 239 to 240 |
